Source: BigSolDB 2.1

C[C@@H]1O[C@@H](O[C@H]2[C@H](Oc3cc(O)c(C(=O)CCc4ccc(O)cc4)c(O)c3)O[C@H](CO)[C@@H](O)[C@@H]2O)[C@H](O)[C@H](O)[C@H]1O
solubility (mole fraction)
Conditions | 298.15 K | 308.15 K | 318.15 K | 328.15 K | 338.15 K
in ethyl acetate | 0.00031 | 0.000369 | 0.000491 | 0.000668 | 0.000776
in water | 2.13e-05 | 3.78e-05 | 7.12e-05 | 0.000166 | 0.000375
